Source: PubChem BioAssay AID1918935 (Molecular Pharmacology Branch, DTP, NCI, 2023)
Where “and” joins values, the source holds several entries; their conditions need not be identical. Identical values can stand only once.

Test system: 324938-238-R-J1-PDC complex spheroid viability
Assay: Anticancer human tumor 324938-238-R-J1-PDC patient-derived bladder carcinoma cell line growth inhibition
Conditions: for viability, T/C: stronger effect = lower value
Description: Multicellular complex tumor spheroid response to LSD1 Inhibitor Iadademstat in combination with a variety of drugs and investigational agents in selected tumor cell lines
The current study was undertaken to assess response to LSD1 inhibitors in combination with standard-of-care drugs and investigational agents in solid tumor complex spheroid models as well as in the K-562 leukemia. Complex spheroids include a stromal component modeled by human endothelial cells (HUVEC) and fibroblasts modeled by human mesenchymal stem cells (MSCs). The concentration ranges selected for each drug and investigational agent were based upon clinically achievable concentrations if the clinical Cmax of the agent was known.
Compounds. The drugs and investigational agents used in this study are listed on Table 1. All of the agents used, including staurosporine (NSC755774) and gemcitabine (NSC613327), were obtained from the Developmental Therapeutics Program, NCI. FDA-approved anticancer drugs are available from the NCI at http://dtp.nci.nih.gov/branches/dscb/oncology_drugset_explanation.html. Drugs and investigational agents were >95% pure by proton nuclear magnetic resonance (NMR) and liquid chromatography/mass spectrometry (LC/MS). Stock solutions were prepared at 400x in DMSO, stored at -70 degrees C, and diluted in fresh medium prior to their use. The final concentration of DMSO in cell culture wells never exceeded 0.25% (v/v). The FDA-approved anticancer drug set is available from the Developmental Therapeutics Program at https://dtp.cancer.gov/organization/dscb/obtaining/available_plates.htm. All drugs and investigational agents were tested over a range starting from a high concentration at or near the clinical Cmax and decreasing in half-log increments. If the clinical Cmax for an agent had not been determined, the highest concentration tested was 10 microM.
Cell Lines. The patient-derived cancer cell (PDC) lines: 292921-168-R-J2-PDC, K24384-001-R-PDC, and 521955-158-R2-J5-PDC pancreatic carcinomas, 556581-035-R-J1 ovarian carcinoma, 324938-238-R-J1-PDC, 855422-203-R-J1-PDC and 883617-216-R-J1-PDC urothelial bladder carcinomas, 743489-274-T-PDC renal cell carcinoma, 138582-R-J1 Merkel cell tumor, K60290-347-R-J1 and K57222-313-R-J1-PDC glioblastomas, 653999-131-R-J2-PDC, LG0703-F948-PDC, and 349418-098-R-PDC non-small cell lung carcinomas, 885512-296-R-J2-PDC, 171881-019-R-J1-PDC breast carcinomas and 186277-243-T-J2-PDC and 233499-124-R-J2-PDC colon carcinomas were obtained from the NCI Patient-Derived Models Repository (PDMR, https://pdmr.cancer.gov). The established cell lines NCI/ADR-RES (RRID:CVCL_14520 and OVCAR-5 (RRID:CVCL_1628) ovarian carcinomas, 786-O (RRID:CVCL_1051) and A498 (RRID:CVCL_A498) renal cell carcinoma, NCI-H211 (ATCC, cat. CRL-5824; RRID:CVCL_1529), NCI-H196 (ATCC, cat. CRL-5823, RRID:CVCL_1509), SW 1271 (ATCC, cat. CRL-2177, RRID:CVCL_1716) and NCI-H1876 (ATCC, cat. CRL-5902, RRID:CVCL_1503) small cell lung carcinomas, MDA-MB-231 (RRID:CVCL_0062) and MDA-MB-468 (RRID:CVCL_0419)breast carcinomas (10-12). Pooled donor human umbilical vein endothelial cells (HUVEC, Lonza, cat. CC-2519) and human mesenchymal stem cells (hMSC, Lonza, cat. PT-2501) were purchased from Lonza (Walkersville, MD).
Cell Culture. All cells were maintained in an incubator at 37 degrees C and 5% CO2 with 95% humidity. The PDC lines were cultured according to standard operating procedures established by the NCI PDMR (https://pdmr.cancer.gov). Briefly all PDCs were thawed and cultured in Matrigel-coated flasks prepared with a working solution of 1X Ham's F-12 nutrient mix, without supplementation (Invitrogen, Waltham, MA, cat. 11765054), 100 U/mL penicillin-streptomycin (Invitrogen, cat. 15140122), and 2.5% Matrigel (Corning Inc., Corning, NY, cat. 354248) for the first three passages. […]

[1] = curve of first compound, second compound 0.1 µM
[2] = curve of first compound, second compound 0.316 µM
[3] = curve of first compound, second compound 1 µM
[4] = curve of first compound, second compound 3.16 µM
[5] = curve of first compound, second compound 10 µM
[6] = second compound 0.1 µM, first compound 0.000316 µM
[7] = second compound 0.1 µM, first compound 0.001 µM
[8] = second compound 0.1 µM, first compound 0.00316 µM
[9] = second compound 0.1 µM, first compound 0.01 µM
[10] = second compound 0.1 µM, first compound 0.0316 µM
[11] = second compound 0.1 µM, first compound 0.1 µM
[12] = second compound 0.316 µM, first compound 0.000316 µM
[13] = second compound 0.316 µM, first compound 0.001 µM
[14] = second compound 0.316 µM, first compound 0.00316 µM
[15] = second compound 0.316 µM, first compound 0.01 µM
[16] = second compound 0.316 µM, first compound 0.0316 µM
[17] = second compound 0.316 µM, first compound 0.1 µM
[18] = second compound 1 µM, first compound 0.000316 µM
[19] = second compound 1 µM, first compound 0.001 µM
[20] = second compound 1 µM, first compound 0.00316 µM
[21] = second compound 1 µM, first compound 0.01 µM
[22] = second compound 1 µM, first compound 0.0316 µM
[23] = second compound 1 µM, first compound 0.1 µM
[24] = second compound 3.16 µM, first compound 0.000316 µM
[25] = second compound 3.16 µM, first compound 0.001 µM
[26] = second compound 3.16 µM, first compound 0.00316 µM
[27] = second compound 3.16 µM, first compound 0.01 µM
[28] = second compound 3.16 µM, first compound 0.0316 µM
[29] = second compound 3.16 µM, first compound 0.1 µM
[30] = second compound 10 µM, first compound 0.000316 µM
[31] = second compound 10 µM, first compound 0.001 µM
[32] = second compound 10 µM, first compound 0.00316 µM
[33] = second compound 10 µM, first compound 0.01 µM
[34] = second compound 10 µM, first compound 0.0316 µM
[35] = second compound 10 µM, first compound 0.1 µM
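Also: spheroids also contain HUVEC and human MSCs and agents combined with iadademstat; spheroids exposed to agents for 7 days before readout.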

CC[C@@]1(O)C(=O)OCc2c1cc1n(c2=O)Cc2cc3c(CN(C)C)c(O)ccc3nc2-1 + NC1CCC(NC2CC2c2ccccc2)CC1
IC50 [1]: 1.54 nM
IC50 [2]: 1.49 nM
IC50 [3]: 1.58 nM
IC50 [4]: 1.42 nM
IC50 [5]: 1.16 nM
viability, T/C [6]: 84.7%
viability, T/C [7]: 64.7%
viability, T/C [8]: 25.5%
viability, T/C [9]: 9.38%
viability, T/C [10]: 7.9%
viability, T/C [11]: 8.7%
viability, T/C [12]: 82.5%
viability, T/C [13]: 63.2%
viability, T/C [14]: 25.3%
viability, T/C [15]: 9.31%
viability, T/C [16]: 9.04%
viability, T/C [17]: 8.45%
viability, T/C [18]: 83.2%
viability, T/C [19]: 66.3%
viability, T/C [20]: 25.4%
viability, T/C [21]: 8.84%
viability, T/C [22]: 9.27%
viability, T/C [23]: 8.86%
viability, T/C [24]: 74.5%
viability, T/C [25]: 61.1%
viability, T/C [26]: 24.9%
viability, T/C [27]: 10.1%
viability, T/C [28]: 8.96%
viability, T/C [29]: 9.71%
viability, T/C [30]: 74.2%
viability, T/C [31]: 53.7%
viability, T/C [32]: 23.9%
viability, T/C [33]: 9.28%
viability, T/C [34]: 9.85%
viability, T/C [35]: 9.19%

COc1ccc([C@@H](O)c2cc(-c3ncnc4cc(N5CCOCC5)ccc34)c(F)cc2Cl)nn1
viability, T/C (compound 0.0316 µM): 102%
viability, T/C (compound 0.1 µM): 95.8% and 99.8%
viability, T/C (compound 0.316 µM): 86.6% and 81.7%
viability, T/C (compound 1 µM): 69.1% and 64.7%
viability, T/C (compound 3.16 µM): 50.8% and 45.9%
viability, T/C (compound 10 µM): 32.3% and 27.2%
IC50 (curve of compound): 3240 nM and 2340 nM

Nc1ccccc1NC(=O)c1ccc(CNC(=O)OCc2cccnc2)cc1 + NC1CC1c1ccc(-c2cccc(O)c2)cc1
IC50 [1]: 501 nM
IC50 [2]: 437 nM
IC50 [3]: 487 nM
IC50 [4]: 489 nM
IC50 [5]: 401 nM
viability, T/C (second compound 0.1 µM, first compound 0.00949 µM): 86.6%
viability, T/C (second compound 0.1 µM, first compound 0.03 µM): 87.6%
viability, T/C (second compound 0.1 µM, first compound 0.0949 µM): 70.2%
viability, T/C (second compound 0.1 µM, first compound 0.3 µM): 62.6%
viability, T/C (second compound 0.1 µM, first compound 0.949 µM): 36.7%
viability, T/C (second compound 0.1 µM, first compound 3 µM): 7.26%
viability, T/C (second compound 0.316 µM, first compound 0.00949 µM): 83.8%
viability, T/C (second compound 0.316 µM, first compound 0.03 µM): 80.1%
viability, T/C (second compound 0.316 µM, first compound 0.0949 µM): 71.7%
viability, T/C (second compound 0.316 µM, first compound 0.3 µM): 56.1%
viability, T/C (second compound 0.316 µM, first compound 0.949 µM): 35.9%
viability, T/C (second compound 0.316 µM, first compound 3 µM): 5.68%
viability, T/C (second compound 1 µM, first compound 0.00949 µM): 67.2%
viability, T/C (second compound 1 µM, first compound 0.03 µM): 76%
viability, T/C (second compound 1 µM, first compound 0.0949 µM): 66.7%
viability, T/C (second compound 1 µM, first compound 0.3 µM): 56.3%
viability, T/C (second compound 1 µM, first compound 0.949 µM): 39.5%
viability, T/C (second compound 1 µM, first compound 3 µM): 3.75%
viability, T/C (second compound 3.16 µM, first compound 0.00949 µM): 76.7%
viability, T/C (second compound 3.16 µM, first compound 0.03 µM): 67%
viability, T/C (second compound 3.16 µM, first compound 0.0949 µM): 70.4%
viability, T/C (second compound 3.16 µM, first compound 0.3 µM): 59.2%
viability, T/C (second compound 3.16 µM, first compound 0.949 µM): 37.6%
viability, T/C (second compound 3.16 µM, first compound 3 µM): 5.73%
viability, T/C (second compound 10 µM, first compound 0.00949 µM): 63.2%
viability, T/C (second compound 10 µM, first compound 0.03 µM): 66.1%
viability, T/C (second compound 10 µM, first compound 0.0949 µM): 68.2%
viability, T/C (second compound 10 µM, first compound 0.3 µM): 51.2%
viability, T/C (second compound 10 µM, first compound 0.949 µM): 36.4%
viability, T/C (second compound 10 µM, first compound 3 µM): 6.9%

CCc1c2c(nc3ccc(O)cc13)-c1cc3c(c(=O)n1C2)COC(=O)[C@]3(O)CC
viability, T/C (compound 0.000949 µM): 7.99% and 9.82%
viability, T/C (compound 0.003 µM): 9.25% and 10.8%
viability, T/C (compound 0.00949 µM): 6.79% and 6.81%
viability, T/C (compound 0.03 µM): 2.02% and 1.48%
viability, T/C (compound 0.0949 µM): 0.16% and 0.66%
viability, T/C (compound 0.3 µM): 0.2% and 0.27%
IC50 (curve of compound): < 0.949 nM

CC(C)CC(NC(=O)CNC(=O)c1cc(Cl)ccc1Cl)B1OC(=O)CC(CC(=O)O)(C(=O)O)O1 (centres undefined) + NC1CCC(NC2CC2c2ccccc2)CC1
IC50 [1]: 2.3 nM
IC50 [2]: 1.97 nM
IC50 [3]: 1.98 nM
IC50 [4]: 1.72 nM
IC50 [5]: 1.75 nM
viability, T/C [6]: 78.5%
viability, T/C [7]: 76.7%
viability, T/C [8]: 39.9%
viability, T/C [9]: 5.51%
viability, T/C [10]: 0.09%
viability, T/C [11]: 0.14%
viability, T/C [12]: 88.5%
viability, T/C [13]: 68.9%
viability, T/C [14]: 37.8%
viability, T/C [15]: 6.24%
viability, T/C [16]: 0.11%
viability, T/C [17]: 0.14%
viability, T/C [18]: 87.1%
viability, T/C [19]: 62.5%
viability, T/C [20]: 44.2%
viability, T/C [21]: 5.29%
viability, T/C [22]: 0.06%
viability, T/C [23]: 0.13%
viability, T/C [24]: 80.2%
viability, T/C [25]: 65.2%
viability, T/C [26]: 33%
viability, T/C [27]: 3.57%
viability, T/C [28]: 0.05%
viability, T/C [29]: 0.16%
viability, T/C [30]: 78.3%
viability, T/C [31]: 76.2%
viability, T/C [32]: 22.7%
viability, T/C [33]: 2.57%
viability, T/C [34]: 0.13%
viability, T/C [35]: 0.21%
